One block for each molecule: values may come before it.
Legend:
[1] = molecular target: T1, human CaSR (Homo sapiens, UniProt P41180); experiment: Intracellular Ca2+ (fura-2, F/F0) in HEK293 cells stably expressing human CaSR; type: cell-based; conditions: HEK-CaSR; for CaSR activation (Ca2+i increase) by agonist: 300 nM poly-L-arginine, 1 mM spermine, 10 μg/ml ECP, no response in HEK-0
T1 construct: expressed in transfected cells; control HEK-0 with empty vector
T1 sequence (P41180 20-1078): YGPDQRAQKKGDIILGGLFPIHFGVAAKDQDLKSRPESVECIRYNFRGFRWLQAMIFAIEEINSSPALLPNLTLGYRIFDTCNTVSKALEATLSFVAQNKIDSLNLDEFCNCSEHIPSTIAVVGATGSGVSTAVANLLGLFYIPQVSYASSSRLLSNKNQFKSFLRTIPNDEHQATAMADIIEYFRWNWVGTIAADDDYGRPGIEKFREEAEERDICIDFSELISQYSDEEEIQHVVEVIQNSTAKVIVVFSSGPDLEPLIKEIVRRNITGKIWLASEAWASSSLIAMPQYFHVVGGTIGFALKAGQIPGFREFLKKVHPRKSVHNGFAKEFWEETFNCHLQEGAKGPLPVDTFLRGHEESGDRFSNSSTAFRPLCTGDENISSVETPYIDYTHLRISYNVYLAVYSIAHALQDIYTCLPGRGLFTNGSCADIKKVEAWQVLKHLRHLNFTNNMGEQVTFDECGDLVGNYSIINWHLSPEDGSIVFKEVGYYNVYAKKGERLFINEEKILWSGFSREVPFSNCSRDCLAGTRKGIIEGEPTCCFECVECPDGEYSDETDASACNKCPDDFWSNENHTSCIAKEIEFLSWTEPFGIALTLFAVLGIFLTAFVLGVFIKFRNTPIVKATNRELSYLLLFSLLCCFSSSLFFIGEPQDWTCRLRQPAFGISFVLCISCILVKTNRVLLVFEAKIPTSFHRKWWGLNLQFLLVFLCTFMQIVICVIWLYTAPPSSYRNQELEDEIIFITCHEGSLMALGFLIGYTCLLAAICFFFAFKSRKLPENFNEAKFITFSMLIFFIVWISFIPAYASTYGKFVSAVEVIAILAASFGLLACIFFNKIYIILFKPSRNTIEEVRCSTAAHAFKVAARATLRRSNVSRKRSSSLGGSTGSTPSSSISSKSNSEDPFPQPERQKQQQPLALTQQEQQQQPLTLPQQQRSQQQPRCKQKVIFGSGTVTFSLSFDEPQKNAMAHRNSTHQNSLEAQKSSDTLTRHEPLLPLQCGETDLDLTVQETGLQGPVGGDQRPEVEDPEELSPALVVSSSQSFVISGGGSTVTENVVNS
Protocol: The structurally unrelated calcilytic NPS2143 also prevents spermine-induced CaSR activation (D). […] Note that ECP serum concentrations in asthmatic subjects are believed to be 30 μg/ml. n=121-487 cells, 3-9 experiments. Data are mean±SEM. Where differences are significant, they are shown above the bars. FIG. 6. Ca^2+o activates the CaSR, an effect which can be prevented by the calcilytic NPS89636. HEK293 cells stably expressing the human CaSR (HEK-CaSR) or transfected with empty vector (HEK-0) were loaded with 4 μM fura-2 AM and exposed to 5 mM Ca^2+o in the absence or presence of the calcilytic, NPS89636 (100 nM). Data are from >3 experiments and 121-386 cells. Significant differences are shown above the bars. […] The ability of a structurally unrelated calcilytic, NPS2143 (1-10 μM), was also tested on spermine-induced Ca^2+i mobilisation in HEK-CaSR. Ca^2+i release was measured as peak/baseline fluorescence (F/F0). Note that ECP serum concentrations in asthmatic subjects increase with disease severity and are believed to reach 30 μg/ml.

[2] = tested on: BalbC mice; experiment: Polycation-induced bronchial hyper-reactivity (Penh, plethysmography) in methacholine-challenged conscious mice; type: in vivo, mouse; conditions: nebulised poly-L-arginine 3 μM, 1 hour; conscious BalbC mice
Protocol: FIG. 5. […] prevent polycation-evoked BHR in methacholine-challenged mice. […] After the treatment, animals were placed in plethysmography chambers (Buxco, USA), allowed to settle for 10 minutes, and then they were challenged with methacholine (MCh, 0.1-10 mg/ml). Responses to methacholine obtained from the animals that have not received any treatments are shown in black symbols. From our previous estimates, 1-5% of the nebulised drug reaches the lung epithelium. […] FIG. 12. […] Male BalbC mice ( 25 g) were purchased from Harlan 1 week before the experimental protocols were performed. […] On the day of the experiment, the body weight of each mouse was recorded and mice were allowed to acclimatise to the chamber for at least 10 min before recordings were made. Then, respiratory activity was recorded for 5 min, to establish baseline value for Penh. […] Data were recorded for 3 minutes after each aerosol administration. The Penh values at each MCh concentration were averaged and expressed as a proportion of baseline Penh (Penh before treatment). […] The Penh values at each MCh concentration were averaged and expressed as a proportion of that day's baseline Penh (Penh after treatment). […] Effect of Polycations and of the Calcilytic NPS89636 on Bronchial Hyper-Reactivity in Unrestrained, Conscious Mice In Vivo Baseline airway hyper-responsiveness was measured by plethysmography. […]

[3] = molecular target: T2, CaSR in human ASM cells (Homo sapiens, UniProt P41180); experiment: Intracellular Ca2+ signalling (Fura-2) in primary human airway smooth muscle cells; type: cell-based; conditions: spermine 0.1-3 mM; ECPs 1-10 micrograms/ml
T2 construct: endogenous in cells; host or cells: primary human airway smooth muscle cells explanted from bronchial biopsies
T2 sequence (P41180 20-1078): T1 sequence (P41180 20-1078)
Protocol: Human ASM cells, loaded with Fura-2 AM, show elevation of [Ca^2+]i (F/F0) when exposed to increased [Ca^2+]o (A, n=7) or spermine (B, n=35; mean±SEM). […] In the presence of 5 mM [Ca^2+]o (saturating for CaSR, see A), the response to ECP, but not to BK, is ablated, consistent with CaSR activation by ECP. D), transfection of a “dominant negative” CaSR (CaSR DN) prevents spermine-dependent increase in [Ca^2+]i in human ASM cells, an effect which cannot be seen in MOCK-transfected cells.
Effects of Polycations in Human ASM Cells In Vitro
Once primary human airway smooth muscle cells cell cultures were established at 80-90% confluence using the protocol described above, the endogenous CaSR was activated by exposing these cells to pathophysiologically relevant concentrations of ECPs (1-10 micrograms/ml), spermine (0.1-3 mM) and Ca^2+o (1-5 mM) to determine the effects on intracellular Ca^2+i signalling (using the Ca^2+-sensitive fluorescent dye, Fura-2).

[4] = tested on: mouse intralobular bronchi; conditions: 300 μM spermine, 15 min pre-treatment
Protocol: A. Intralobular bronchi were dissected from wild type C57/Bl6 mice (3-4 month of age), mounted upon a wire myograph and bubbled with 95% O2/5% CO2 in the presence of an extracellular solution containing 1 mM Ca^2+o. […] Data are mean±SEM, n=3. B. Intralobular bronchi were dissected from wild type (sm22α-Cre^−/−/floxed-CaSR^+/+) and CaSR knockout (sm22α-Cre^+/+/floxed-CaSR^+/+) mice and were then mounted on a wire myograph, as described in (A). […] Percentage of contraction (upwards deflection from zero of the relaxation curve) or relaxation (downwards deflection from zero of the relaxation curve) were calculated from the tension data. Data are mean±SEM, n=3 per genotype. […] Second/third order intralobular bronchi were dissected from the lung left lobes of WT or KO mice, mounted in small vessel myograph using stainless steel wires (d=40 micrometers) and maintained in a Krebs solution bubbled with 95% O2/5% CO2. Bronchi were left to settle at 37° C. for 30 min, then they were gradually stretched to reach 2 mN of passive tension. After 30 min equilibration time, reactivity of the bronchi was tested by addition of 40 mM KCl to the bath. […] Data are shown as mean±SEM percentage of contraction normalized to the maximal contraction in control. […] Bronchi were left to settle at 37° C. for 30 min, then they were gradually stretched to reach 2 mN of passive tension. […]

[5] = tested on: mouse intralobular bronchi; conditions: spermine 10 μM-3 mM cumulative, ACh-precontracted to ~50% tone
Protocol: A. Intralobular bronchi were dissected from wild type C57/Bl6 mice (3-4 month of age), mounted upon a wire myograph and bubbled with 95% O2/5% CO2 in the presence of an extracellular solution containing 1 mM Ca^2+o. […] Data are mean±SEM, n=3. B. Intralobular bronchi were dissected from wild type (sm22α-Cre^−/−/floxed-CaSR^+/+) and CaSR knockout (sm22α-Cre^+/+/floxed-CaSR^+/+) mice and were then mounted on a wire myograph, as described in (A). […] Percentage of contraction (upwards deflection from zero of the relaxation curve) or relaxation (downwards deflection from zero of the relaxation curve) were calculated from the tension data. Data are mean±SEM, n=3 per genotype. […] Second/third order intralobular bronchi were dissected from the lung left lobe of WT or CaSR KO mice, mounted in small vessel myograph using stainless steel wires (d=40 micrometers) in a Krebs' solution bubbled with 95% O2/5% CO2. Bronchi were left to settle at 37° C. for 30 min, then gradually stretched to reach 2 mN of passive tension. After 30 min of equilibration time, the reactivity of the bronchi was tested by addition of 40 mM KCl to the bath. […] Data are shown as mean±SEM percentage change from baseline, where upwards deflection from zero represents contraction, whilst downwards deflection from zero of the relaxation curve represents relaxation. […] WT: n=6; KO: n=7. *p<0.05; **p<0.01.

Molecule: poly-L-arginine [reference compound]
CaSR activation (Ca2+i increase) by agonist [1]: responds | Effect on response to methacholine (Penh) [2]: significantly enhanced

CaSR activation (Ca2+i increase) by agonist [1]: responds | Increase in Ca2+i evoked by agonist in human ASM cells [3]: evoke increases in Ca^2+i
Molecule: NCCCNCCCCNCCCN [spermine]
Effect on ACh-induced contraction, CaSR KO bronchi ([4]; CaSR knock-out mice): not seen | Effect on ACh-induced contraction, WT bronchi ([4]; wild-type mice): increases the response to acetylcholine-mediated contraction | Direct bronchoconstriction, CaSR KO bronchi ([5]; knock-out mice): not in the intralobular bronchi of knock-out mice | Direct bronchoconstriction, WT bronchi ([5]; wild-type mice): directly evokes bronchoconstriction

Effect of calcilytic on spermine-induced CaSR activation (Ca2+i mobilisation) ([1]; 1-10 μM calcilytic): prevented CaSR activation by spermine
Molecule: CC(C)(Cc1ccc2ccccc2c1)NC[C@@H](O)COc1cccc(Cl)c1C#N.Cl [NPS2143, reference compound]

CaSR activation (Ca2+i increase) by agonist [1]: agonists at the CaSR | Increase in Ca2+i evoked by agonist in human ASM cells [3]: evoke increases in Ca^2+i
B1: ECPs: eosinophil cationic protein, novel agonist at the human CaSR (protein, UniProt P12724 28-160, looked up)
Eosinophil cationic protein: RPPQFTRAQWFAIQHISLNPPRCTIAMRAINNYRWRCKNQNTFLRTTFANVVNVCGNQSIRCPHNRTLNNCHRSRFRVPLLHCDLINPGAQNISNCTYADRPGRRFYVVACDNRDPRDSPRYPVVPVHLDTTI

Source: patent US9861606B2, “Therapeutic for treating inflammatory lung disorders” (University College Cardiff Consultants Limited, priority 2012, dated 2018)
